# Source: patent publication US20070276034A1, “Compounds, compositions and methods for the treatment of synucleinopathies” (priority 2002, published 2007)
# Read-outs that look alike come from different tables or passages of the source.
# Assays:
# [1] = tested on: A53T α-synuclein-expressing BE-M17 cells; experiment: XTT Cytotoxicity assay - protection against rotenone-induced cytotoxicity; format: cell-based
# Excerpt: (§1) Therefore, to test the therapeutic potential of the compounds, two cell-based assays were utilized. In both assays, rotenone is used to induce mitochondrial oxidative stress and α-synuclein aggregation. The first assay utilizes the binding of the fluorescent dye thioflavin S to structures with high β-sheet content including α-synuclein fibrils. Therefore, quantitative assessment of the extent of thioflavin S-positive staining of fixed cells is used to test the ability of the compounds to decrease the amount of α-synuclein aggregates. In the second assay, cell viability is assessed using the XTT Cytotoxicity assay, which is dependent on intact, functional mitochondria in live cells. Thus, the XTT Cytotoxicity assay is used to test the ability of the compounds to ameliorate the mitochondrial toxicity and resulting loss of viability associated with the accumulation of α-synuclein aggregates. Phrased another way, the XTT Cytotoxicity assay is used to gauge the compounds neuroprotective efficacy. These studies are presented in the following examples.
# (§2) BE-M17 human neuroblastoma cells stably transfected with A53T-mutant human α-synuclein were obtained. Cell culture reagents were obtained from Gibco/Invitrogen, and cells were grown in OPTIMEM supplemented with 10% FBS, Penicillin (100 units/mil)-Streptomycin (100 μg/ml) and 500 μg/ml G418 as previously described (Ostrerova-Golts et al., J. Neurosci., 20:6048-6054, 2000).
# Research has shown that the accumulation of α-synuclein fibrils in Lewy bodies contributes mechanistically to the degradation of neurons in Parkinson's disease and related disorders (Polymeropoulos et al., Science 276:2045-2047, 1997; Kruger et al., Nature Genet. 18:106-108, 1998). Here, the XTT Cytotoxicity assay (hereafter referred to as the XTT assay) was used to measure the ability of test compounds to protect against rotenone-induced cytotoxicity (neuroprotective ability). The assay is based on the principle that conversion of the yellow tetrazolium salt XTT to form an orange formazan dye (that absorbs light around 490 nm) occurs only in metabolically active, viable cells. Therefore, light absorbance at 490 nm is proportional to cell viability. For this assay, cells were plated in 96 well tissue culture dishes at 10^4 cells per well. After 24 hours, cells were treated with 500 nM or 2 μM rotenone, or vehicle (0.05% DMSO) as indicated. Immediately after rotenone addition, compounds were added at the indicated concentration. […] Untreated cells received cell culture media only (no compound, with or without rotenone). After 40-44 hours of treatment, conditioned media was removed and replaced with 100 μl fresh media and 50 μl XTT labeling reaction mixture according to the manufacturer's recommendations. Four to five hours later, the absorbance at 490 nm was measured and corrected for absorbance at the 700 nm reference wavelength. […] Percent inhibition of cell death was calculated as the proportion of the rotenone-induced absorbance (viability) decrease that was eliminated by test compound treatment.
# [2] = tested on: BE-M17 human neuroblastoma cells overexpressing A53T α-synuclein; experiment: Thioflavin S aggregation assay in rotenone-treated cells; format: cell-based
# Excerpt: as §1, §2
# Thioflavin S is commonly used to detect amyloid-containing structures in situ, including in brain tissue (Vallet et al., Acta Neuropathol., 83:170-178, 1992), and cultured cells (Ostrerova-Golts et al., J. Neurosci., 20:6048-6054, 2000), whereas thioflavin T is often used as an in vitro reagent to analyze the aggregation of soluble amyloid proteins into fibrils enriched in β-pleated sheet structures (LeVine III, Prot. Sci., 2:404-410, 1993). Therefore, Thioflavin S histochemistry was used on cultured cells to detect aggregates containing a high degree of […] structures that formed in response to oxidative stress-inducing agents (in this case rotenone) as previously described, with minor modifications (Ostrerova-Golts et al., J. Neurosci, 20:6048-6054, 2000). Briefly, for these studies, cells were grown on Poly-D-Lysine coated glass slide chambers at approximately 3×10^4 cells/cm^2. After 24 hours, cells were treated with 500 nM, 1 μM or 5 μM rotenone (Sigma) or vehicle (0.05% DMSO) as indicated. Immediately after rotenone (or vehicle) addition, compounds were added at the indicated concentration, or cell culture media only (no compound) in the presence of rotenone was added. Identical treatments were repeated after 48 hours. After an additional 48 hours, cells were fixed for 25 minutes in 3% paraformaldehyde. After a PBS wash, the cells were incubated with 0.015% thioflavin S in 50% ethanol for 25 minutes, washed twice for four minutes in 50% ethanol and twice for five minutes in deionized water and then mounted using an aqueous-based mountant designed to protect against photobleaching. Aggregates that bind to thioflavin S were detected with a fluorescent microscope using a High Q FITC filter set (480 to 535 nm bandwidth) and a 20× objective lens unless otherwise indicated. Between 8 and 16 representative images per condition were selected, imaged and processed by an experimenter who was blinded to treatment conditions. To assess the amount of thioflavin S-positive aggregates, the total area per field covered by thioflavin S-positive inclusions was determined. […] Spurious, non-cell associated fluorescence was manually removed. Unless indicated otherwise, data represent group means ±SEM. Statistical analyses were performed with GraphPad Prism (GraphPad Inc). Differences between means (two samples) were assessed by the […]. Differences among multiple means were assessed by one-factor ANOVA followed by Tukey's multiple comparison test.
# NAC fibrils = target: T1, NAC fibrils (Homo sapiens, UniProt P37840); experiment: Congo red binding assay with NAC fibrils; format: biochemical; settings: for % Inhibition NAC (result ± S.D.), Congo red binding: 3-day incubation
# T1 construct: NAC is a 35-amino acid fragment of α-synuclein; purchased Bachem Inc
# Description: In the Congo red binding assay, the ability of a given test compound to alter amyloid (in this case, NAC) binding to Congo red is quantified. In this assay, NAC and test compounds were incubated for 3 days and then vacuum filtered through a 0.2 μm filter. The amount of NAC retained in the filter was then quantitated following staining of the filter with Congo red. After appropriate washing of the filter, any lowering of the Congo red color on the filter in the presence of the test compound (compared to the Congo red staining of the amyloid protein in the absence of the test compound) was indicative of the test compound's ability to diminish/alter the amount of aggregated and congophilic NAC.
# In one study, the ability of NAC fibrils to bind Congo red in the absence or presence of increasing amounts of compounds #1, 3, 23, 26, 63, 66, 67, or EDTA (at NAC:test compound weight ratios of 1:1, 1:0.1, 1:0.01 or 1:0.001) was determined.
# [3] = 50 μg/ml compound, at both rotenone doses (500 nM or 2 μM)
# [4] = 1 μM rotenone, 1 μg/ml compound
# [5] = 5 μg/ml compound, rotenone 500 nM or 2 μM
# [6] = 5 μM rotenone, 1 μg/ml compound
# [7] = NAC:test compound wt/wt ratio 1:0.001
# [8] = NAC:test compound wt/wt ratio 1:0.01
# [9] = NAC:test compound wt/wt ratio 1:0.1
# [10] = NAC:test compound wt/wt ratio 1:1
structure (smiles),measurement,setting,value
"O=C(Nc1ccc(O)c(O)c1)c1ccc(O)c(O)c1 [Compound 51, 3,4-dihydroxybenzoic acid 3,4-dihydroxyanilide]",optimal therapeutic dose in XTT assay,[1]; 500 nM rotenone,~25 µg/mL
same,inhibition of rotenone-induced loss of viability,[1]; [3],25-30%
same,inhibition at 10 µg/mL,"[1]; Homo sapiens, 10 μg/ml compound, 500 nM rotenone, read-out: inhibition of rotenone-induced toxicity",45%
same,inhibition at 25 µg/mL,"[1]; Homo sapiens, 25 μg/ml compound, 500 nM rotenone, read-out: inhibition of rotenone-induced toxicity",55%
same,reduction of rotenone-induced thioflavin S-positive aggregates,"[2]; 1 μM rotenone, 500 ng/ml compound",87%
same,reduction of rotenone-induced thioflavin S-positive aggregates,[2]; [4],91%
"O=C(Nc1ccc(O)c(O)c1)Nc1ccc(O)c(O)c1 [Compound 76, 1,3-bis(3,4-dihydroxyphenyl)urea]",inhibition of rotenone-induced loss of viability,[1]; [5],approximately 18%
same,reduction of rotenone-induced thioflavin S-positive aggregates,"[2]; 5 μM rotenone, 500 ng/ml compound",73%
same,reduction of rotenone-induced thioflavin S-positive aggregates,[2]; [6],80%
same,reduction of rotenone-induced thioflavin S-positive aggregates,"[2]; 5 μM rotenone, 5 μg/ml compound",91%
"Oc1ccc(Cc2ccc(O)c(O)c2)cc1O [Compound 3, 3,4,3′,4′-tetrahydroxydiphenylmethane]","% Inhibition NAC (result ± S.D.), Congo red binding",NAC fibrils; [7],65.2 ± 5.40%
same,"% Inhibition NAC (result ± S.D.), Congo red binding",NAC fibrils; [8],81.7 ± 2.82%
same,"% Inhibition NAC (result ± S.D.), Congo red binding",NAC fibrils; [9],83.2±3.57%
same,"% Inhibition NAC (result ± S.D.), Congo red binding",NAC fibrils; [10],94.4±2.48%
same,reduction of rotenone-induced thioflavin S-positive aggregates,[2]; [4],90%
same,reduction of rotenone-induced thioflavin S-positive aggregates,"[2]; 1 μM rotenone, 5 μg/ml compound",90%
"O=C(CCC(=O)NCc1ccc(O)c(O)c1)NCc1ccc(O)c(O)c1 [Compound 67, succinic acid bis(3,4-dihydroxybenzylamide)]","% Inhibition NAC (result ± S.D.), Congo red binding",NAC fibrils; [10],81.2 ± 2.87%
"O=C(NCc1ccc(O)c(O)c1)C(=Cc1ccc(O)c(O)c1)NC(=O)c1ccc(O)c(O)c1 [Compound 21, α-(3,4-dihydroxybenzamido)-3,4-dihydroxycinnamic acid 3,4-dihydroxybenzyl amide]",inhibition of rotenone-induced loss of viability,[1]; [3],30-40%
same,reduction of rotenone-induced thioflavin S-positive aggregates,[2]; [6],84%
"O=C(Nc1ccc(O)c(O)c1)C(=O)Nc1ccc(O)c(O)c1 [Compound 63, oxalic acid bis(3,4-dihydroxyanilide)]",inhibition of rotenone-induced loss of viability,[1]; [5],10-13%
same,inhibition at 50 µg/mL,"[1]; Homo sapiens, 50 μg/ml compound, 500 nM rotenone, read-out: inhibition of rotenone-induced toxicity",~55%
same,inhibition at 50 µg/mL,"[1]; Homo sapiens, 50 μg/ml compound, 2 μM rotenone, read-out: inhibition of rotenone-induced toxicity",~35%
"O=C(N[C@@H]1CCCC[C@H]1NC(=O)c1ccc(O)c(O)c1)c1ccc(O)c(O)c1 (relative stereo) [Compound 26, N,N′-bis(3,4-dihydroxybenzoyl)-trans-1,2-diaminocyclohexane]","% Inhibition NAC (result ± S.D.), Congo red binding",NAC fibrils; [9],36.7 ± 5.59%
same,"% Inhibition NAC (result ± S.D.), Congo red binding",NAC fibrils; [10],34.4 ± 10.19%
"O=C(O)CN(CCN(CC(=O)O)CC(=O)O)CC(=O)O [EDTA, reference compound]","% Inhibition NAC (result ± S.D.), Congo red binding",NAC fibrils; [7],0.0 ± 20.57%
same,"% Inhibition NAC (result ± S.D.), Congo red binding",NAC fibrils; [8],0.0 ± 22.0%
same,"% Inhibition NAC (result ± S.D.), Congo red binding",NAC fibrils; [9],0.0 ± 38.26%
same,"% Inhibition NAC (result ± S.D.), Congo red binding",NAC fibrils; [10],0.2 ± 7.33%
same,inhibition of NAC fibril binding to Congo red (in words),"NAC fibrils; all concentrations tested (ratios 1:1 to 1:0.001), 3 days",no significant inhibition
"O=C(c1ccc(O)c(O)c1)C(O)c1ccc(O)c(O)c1 (stereo not shown) [Compound 1, 3,4,3′,4′-tetrahydroxybenzoin]","% Inhibition NAC (result ± S.D.), Congo red binding",NAC fibrils; [9],75.9 ± 2.58%
same,"% Inhibition NAC (result ± S.D.), Congo red binding",NAC fibrils; [10],75.4 ± 2.96%
